The target of the test is FABP4 (Homo sapiens, UniProt P15090). Put plainly: TdF (Temperature Dependence Fluorescence) assay, thermal shift, FABP4. It is filed as binding. The method, boiled down:
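Binding measured as ΔTm versus protein alone; binding constants derived by nonlinear fitting with ΔHL set to −7 kcal/mol and ΔCpL to zero.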

The structures appear in SMILES notation.

Sequence of FABP4 (P15090 whole entry, species assumed): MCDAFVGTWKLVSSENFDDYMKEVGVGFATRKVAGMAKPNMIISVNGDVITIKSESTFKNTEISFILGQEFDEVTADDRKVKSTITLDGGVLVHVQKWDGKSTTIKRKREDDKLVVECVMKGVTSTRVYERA

Consider `O=c1c(Br)c(COc2cccc(Cl)c2C2CC2)[nH]c2nc(-c3ccccc3)nn12` [23-1], for which the “FABP4 TdF Kd” value is “B (0.5 ≦ B < 0.001 μM)”.

For `CC1(C)CCCC(OCc2[nH]c3nc(-c4ccccc4)nn3c(=O)c2Cl)C1` (stereo not drawn) [24-2], the “FABP4 TdF Kd” value is “B (0.5 ≦ B < 0.001 μM)”.

Turning to `O=c1c(Cl)c(COc2csc(C(F)(F)F)c2)[nH]c2nc(-c3ccccc3)nn12` [24-3], the “FABP4 TdF Kd” value is on record as “B (0.5 ≦ B < 0.001 μM)”.

On to `O=c1c(Cl)c(CN2CCOc3c(Br)cccc32)[nH]c2nc(-c3ccccc3)nn12` [24-4], for which the “FABP4 TdF Kd” value is “B (0.5 ≦ B < 0.001 μM)”.

As for `O=c1c(Cl)c(CN2CCCC2Cc2cccc(Cl)c2)[nH]c2nc(-c3ccccc3)nn12` (stereo not drawn) [24-5], the Kd was more than 500 nM.

For `O=c1c(Cl)c(CN2CCCC2Cc2ccncn2)[nH]c2nc(-c3ccccc3)nn12` (stereo not drawn) [24-6], the Kd is more than 500 nM.

On to `O=c1c(Cl)c(COCC2(c3cccc(C(F)(F)F)c3)CC2)[nH]c2nc(-c3ccccc3)nn12` [24-7], for which the “FABP4 TdF Kd” value is recorded as “B (0.5 ≦ B < 0.001 μM)”.

In the case of `O=C(NCC1(c2ccccc2Cl)CC1)c1ccccc1OCc1[nH]c2nc(-c3ccccc3)nn2c(=O)c1Cl` [24-8], the “FABP4 TdF Kd” value is on record as “B (0.5 ≦ B < 0.001 μM)”.

In the case of `O=C(NCC1(CO)CCCC1)c1ccccc1OCc1[nH]c2nc(-c3ccccc3)nn2c(=O)c1Cl` [24-9], the “FABP4 TdF Kd” value was “B (0.5 ≦ B < 0.001 μM)”.

Turning to `O=C(NCC1(CO)CCC1)c1ccccc1OCc1[nH]c2nc(-c3ccccc3)nn2c(=O)c1Cl` [24-10], the Kd is more than 500 nM.

Consider `CC1(NC(=O)c2ccccc2OCc2[nH]c3nc(-c4ccccc4)nn3c(=O)c2Cl)COC1` [24-11], for which the Kd is more than 500 nM.

Regarding `CN(C(=O)c1ccccc1OCc1[nH]c2nc(-c3ccccc3)nn2c(=O)c1Cl)C1CCCCC1` [24-12], the “FABP4 TdF Kd” value is “B (0.5 ≦ B < 0.001 μM)”.

Take `O=C(NC1CCCCC1)c1ccccc1OCc1[nH]c2nc(-c3ccccc3)nn2c(=O)c1Cl` [24-13]: the “FABP4 TdF Kd” value is “B (0.5 ≦ B < 0.001 μM)”.

Take `O=C(NCCC1CC1)c1ccccc1OCc1[nH]c2nc(-c3ccccc3)nn2c(=O)c1Cl` [24-14]: the “FABP4 TdF Kd” value was “B (0.5 ≦ B < 0.001 μM)”.

As for `O=C(NCC1CC1)c1ccccc1OCc1[nH]c2nc(-c3ccccc3)nn2c(=O)c1Cl` [24-15], the “FABP4 TdF Kd” value is listed as “B (0.5 ≦ B < 0.001 μM)”.

As to `O=C(NCC1(CO)CC1)c1ccccc1OCc1[nH]c2nc(-c3ccccc3)nn2c(=O)c1Cl` [24-16], the “FABP4 TdF Kd” value is “B (0.5 ≦ B < 0.001 μM)”.

As for `COCC1(CNC(=O)c2ccccc2OCc2[nH]c3nc(-c4ccccc4)nn3c(=O)c2Cl)CC1` [24-17], the “FABP4 TdF Kd” value was “B (0.5 ≦ B < 0.001 μM)”.

With `COc1ccccc1C1(CNC(=O)c2ccccc2OCc2[nH]c3nc(-c4ccccc4)nn3c(=O)c2Cl)CC1` [24-18], the Kd is not above 1 nM.

For `Cc1c(Cl)cccc1OCc1cc(=O)n2nc(-c3ccccn3)nc2[nH]1` [25-3], the “FABP4 TdF Kd” value was “B (0.5 ≦ B < 0.001 μM)”.

Take `Cc1c(Cl)cccc1OCc1cc(=O)n2nc(-c3ccsc3)nc2[nH]1` [25-4]: the “FABP4 TdF Kd” value is “B (0.5 ≦ B < 0.001 μM)”.

As to `Cc1c(Cl)cccc1OCc1cc(=O)n2nc(-c3cnccn3)nc2[nH]1` [25-5], the Kd is more than 500 nM.

As for `Cc1c(Cl)cccc1OCc1cc(=O)n2nc(-c3cncnc3)nc2[nH]1` [25-6], the Kd is more than 500 nM.

Consider `Cc1c(Cl)cccc1OCc1cc(=O)n2nc(-c3ccccc3Cl)nc2[nH]1` [25-7], for which the Kd is more than 500 nM.

On to `Cc1c(Cl)cccc1OCc1cc(=O)n2nc(-c3ccccc3F)nc2[nH]1` [25-8], for which the Kd was more than 500 nM.

With `O=c1c(Cl)c(COc2cccc(Cl)c2C2CCC2)[nH]c2nc(-c3ccccc3)nn12` [26-4], the “FABP4 TdF Kd” value is recorded as “B (0.5 ≦ B < 0.001 μM)”.

On to `Cc1c(Cl)cccc1OCc1cc(=O)n2nc(-c3ccccc3)nc2n1C` [28-1], for which the Kd is more than 500 nM.

`O=c1cc(CN2CCc3c(C4CC4)cccc32)[nH]c2nc(-c3ccccc3)nn12` [29-1]: the dissociation constant (Kd) was more than 500 nM.

For `O=c1cc(COc2cccc(Cl)c2CO)[nH]c2nc(-c3ccccc3)nn12` [30-2], the “FABP4 TdF Kd” value is “B (0.5 ≦ B < 0.001 μM)”.

Regarding `CC(=O)c1c(Cl)cccc1OCc1cc(=O)n2nc(-c3ccccc3)nc2[nH]1` [31-2], the “FABP4 TdF Kd” value is reported as “B (0.5 ≦ B < 0.001 μM)”.

On to `CN(C)Cc1c(Cl)cccc1OCc1cc(=O)n2nc(-c3ccccc3)nc2[nH]1` [33-1], for which the equilibrium dissociation constant (Kd) was more than 500 nM.

For the molecule `O=c1cc(COc2cccc(Cl)c2CNCCN2CCOCC2)[nH]c2nc(-c3ccccc3)nn12` [33-2], the Kd is more than 500 nM.

`CN1CCN(CCNCc2c(Cl)cccc2OCc2cc(=O)n3nc(-c4ccccc4)nc3[nH]2)CC1` [33-3]: the Kd is more than 500 nM.

Take `Cc1ccccc1C(C)Cc1cc(=O)n2nc(-c3ccccc3)nc2[nH]1` (stereo not drawn) [35-5]: the “FABP4 TdF Kd” value was “B (0.5 ≦ B < 0.001 μM)”.

On to `Cc1c(Cl)cccc1OCc1[nH]c2nc(-c3ccccc3)nn2c(=O)c1F` [36-1], for which the “FABP4 TdF Kd” value is “B (0.5 ≦ B < 0.001 μM)”.

On to `Cc1c(Cl)cccc1OC(C)c1cc(=O)n2nc(-c3ccccc3)nc2[nH]1` (stereo not drawn) [37-5], for which the “FABP4 TdF Kd” value is “B (0.5 ≦ B < 0.001 μM)”.

`CC1(C)CN(Cc2cc(=O)n3nc(-c4ccccc4)nc3[nH]2)c2cccc(Br)c21` [39-5]: the “FABP4 TdF Kd” value is “B (0.5 ≦ B < 0.001 μM)”.

On to `CCCCC1(C)CN(Cc2cc(=O)n3nc(-c4ccccc4)nc3[nH]2)c2cccc(Cl)c21` (stereo not drawn) [41-3], for which the “FABP4 TdF Kd” value is given as “B (0.5 ≦ B < 0.001 μM)”.

On to `C=CCc1c(Cl)cccc1OCc1cc(=O)n2nc(-c3ccccc3)nc2[nH]1` [42-3], for which the “FABP4 TdF Kd” value is recorded as “B (0.5 ≦ B < 0.001 μM)”.

On to `C=CCc1ccc(Cl)cc1OCc1cc(=O)n2nc(-c3ccccc3)nc2[nH]1` [42-4], for which the “FABP4 TdF Kd” value was “B (0.5 ≦ B < 0.001 μM)”.

As for `O=c1cc(COc2cccc(Cl)c2CC2CC2)[nH]c2nc(-c3ccccc3)nn12` [43-2], the “FABP4 TdF Kd” value is “B (0.5 ≦ B < 0.001 μM)”.

For `O=c1cc(COc2cc(Cl)ccc2CC2CC2)[nH]c2nc(-c3ccccc3)nn12` [43-3], the “FABP4 TdF Kd” value is “B (0.5 ≦ B < 0.001 μM)”.

Turning to `N#Cc1cccc(OCc2cc(=O)n3nc(-c4ccccc4)nc3[nH]2)c1Cl` [45-2], the “FABP4 TdF Kd” value is reported as “B (0.5 ≦ B < 0.001 μM)”.

For the molecule `N#Cc1cccc(OCc2cc(=O)n3nc(-c4ccccc4)nc3[nH]2)c1C1CC1` [46-2], the “FABP4 TdF Kd” value is “B (0.5 ≦ B < 0.001 μM)”.

As to `NCc1cccc(OCc2cc(=O)n3nc(-c4ccccc4)nc3[nH]2)c1C1CC1` [46-3], the Kd is more than 500 nM.

As to `O=C(O)c1c(Cl)cccc1OCc1cc(=O)n2nc(-c3ccccc3)nc2[nH]1` [47-1, 2-chloro-6-((7-oxo-2-phenyl-4,7-dihydro-[1,2,4]triazolo[1,5-a]pyrimidin-5-yl)methoxy)benzoic acid], the “FABP4 TdF Kd” value is “B (0.5 ≦ B < 0.001 μM)”.

Consider `Cn1nccc1NC(=O)c1c(Cl)cccc1OCc1cc(=O)n2nc(-c3ccccc3)nc2[nH]1` [47-2, 2-chloro-N-(1-methyl-1H-pyrazol-5-yl)-6-((7-oxo-2-phenyl-4,7-dihydro-[1,2,4]triazolo[1,5-a]pyrimidin-5-yl)methoxy)benzamide], for which the “FABP4 TdF Kd” value was “B (0.5 ≦ B < 0.001 μM)”.

On to `O=C(NCC1CC1)c1c(Cl)cccc1OCc1cc(=O)n2nc(-c3ccccc3)nc2[nH]1` [47-3], for which the “FABP4 TdF Kd” value is “B (0.5 ≦ B < 0.001 μM)”.

Take `O=C(NCC1(c2ccc(Cl)cc2)CC1)c1c(Cl)cccc1OCc1cc(=O)n2nc(-c3ccccc3)nc2[nH]1` [47-4, 2-chloro-N-((1-(4-chlorophenyl)cyclopropyl)methyl)-6-((7-oxo-2-phenyl-4,7-dihydro-[1,2,4]triazolo[1,5-a]pyrimidin-5-yl)methoxy)benzamide]: the Kd was not above 1 nM.

`O=C(NCC1CCC1)c1c(Cl)cccc1OCc1cc(=O)n2nc(-c3ccccc3)nc2[nH]1` [47-5, 2-chloro-N-(cyclobutylmethyl)-6-((7-oxo-2-phenyl-4,7-dihydro-[1,2,4]triazolo[1,5-a]pyrimidin-5-yl)methoxy)benzamide]: the “FABP4 TdF Kd” value is given as “B (0.5 ≦ B < 0.001 μM)”.

Consider `O=C(c1c(Cl)cccc1OCc1cc(=O)n2nc(-c3ccccc3)nc2[nH]1)N1CCS(=O)(=O)CC1` [47-6, 4-[2-chloro-6-[(4,7-dihydro-7-oxo-2-phenyl[1,2,4]triazolo[1,5-a]pyrimidin-5-yl)methoxy]benzoyl]thiomorpholine, 1,1-dioxide], for which the Kd is more than 500 nM.

As for `Cc1cc(NC(=O)c2c(Cl)cccc2OCc2cc(=O)n3nc(-c4ccccc4)nc3[nH]2)n(C)n1` [47-7, 2-chloro-N-(1,3-dimethyl-1H-pyrazol-5-yl)-6-((7-oxo-2-phenyl-4,7-dihydro-[1,2,4]triazolo[1,5-a]pyrimidin-5-yl)methoxy)benzamide], the “FABP4 TdF Kd” value is “B (0.5 ≦ B < 0.001 μM)”.

Take `Cc1cc(NC(=O)c2c(Cl)cccc2OCc2cc(=O)n3nc(-c4ccccc4)nc3[nH]2)no1` [47-8, 2-chloro-N-(5-methylisoxazol-3-yl)-6-((7-oxo-2-phenyl-4,7-dihydro-[1,2,4]triazolo[1,5-a]pyrimidin-5-yl)methoxy)benzamide]: the “FABP4 TdF Kd” value is “B (0.5 ≦ B < 0.001 μM)”.

On to `COC[C@@H]1CCCN1C(=O)c1c(Cl)cccc1OCc1cc(=O)n2nc(-c3ccccc3)nc2[nH]1` [47-9, (S)-5-((3-chloro-2-(2-(methoxymethyl)pyrrolidine-1-carbonyl)phenoxy)methyl)-2-phenyl-[1,2,4]triazolo[1,5-a]pyrimidin-7(4H)-one], for which the “FABP4 TdF Kd” value is reported as “B (0.5 ≦ B < 0.001 μM)”.

As to `COC[C@H]1CCCN1C(=O)c1c(Cl)cccc1OCc1cc(=O)n2nc(-c3ccccc3)nc2[nH]1` [47-10], the “FABP4 TdF Kd” value is “B (0.5 ≦ B < 0.001 μM)”.

For `Cn1nc(C2CC2)cc1NC(=O)c1c(Cl)cccc1OCc1cc(=O)n2nc(-c3ccccc3)nc2[nH]1` [47-11], the “FABP4 TdF Kd” value is “B (0.5 ≦ B < 0.001 μM)”.

On to `O=C(NC1(CO)CC1)c1c(Cl)cccc1OCc1cc(=O)n2nc(-c3ccccc3)nc2[nH]1` [47-12, 2-chloro-N-(1-(hydroxymethyl)cyclopropyl)-6-((7-oxo-2-phenyl-4,7-dihydro-[1,2,4]triazolo[1,5-a]pyrimidin-5-yl)methoxy)benzamide], for which the “FABP4 TdF Kd” value is “B (0.5 ≦ B < 0.001 μM)”.

Regarding `O=C(NCC1(O)CCCCC1)c1c(Cl)cccc1OCc1cc(=O)n2nc(-c3ccccc3)nc2[nH]1` [47-13, 2-chloro-N-((1-hydroxycyclohexyl)methyl)-6-((7-oxo-2-phenyl-4,7-dihydro-[1,2,4]triazolo[1,5-a]pyrimidin-5-yl)methoxy)benzamide], the “FABP4 TdF Kd” value is recorded as “B (0.5 ≦ B < 0.001 μM)”.

One may read the Kd as the concentration at which binding is half-saturated.
